For test [1], the system named is bladder cancer cells RT112/84 with high expression of FGFR3. Kind of test: Cell proliferation inhibition, CellTiter-Glo, RT-112/84. The test is classed as cell-based. Conditions: Homo sapiens, RT112/84, 72 h, RT-112/84, cultured for 3 days. An excerpt:
The compounds of the present disclosure can target and inhibit FGFR and VEGFR pathways, and inhibit tumor cell growth by inhibiting VEGF/VEGFR and FGF/FGFR signaling pathways. In this experiment, human non-small cell lung cancer cells NCI-H1581 with high expression of FGFR1, gastric cancer cells SNU-16 with high expression of FGFR2, and human bladder cancer cells RT112/84 with high expression of FGFR3 were selected. In this experiment, the inhibitory effect of compounds on cell proliferation was investigated by detecting the effect of the compounds of the present disclosure on the cell viability in vitro in the tumor cell lines NCI-H1581, SNU-16 and RT-112/84.
Regular passage, and cells in logarithmic growth phase were taken for plating.
• (1) Cells were stained with trypan blue and viable cells were counted. • (2) The cell concentration was adjusted to an appropriate concentration.
• (3) 90 μL of cell suspension per well was added to a culture plate, and cell-free culture solution was added to the blank control well. • (4) The plate was cultured overnight in a 37° C., 5% CO2 incubator with 100% relative humidity.
• (1) Preparation of 10× compound working solution: 78 μL of cell culture medium was added to a V-bottom 96-well plate, and 2 μL of compound was pipetted from a 400× compound storage plate and added to the cell culture medium of the 96-well plate. […]

Test [2] deals with Renca subcutaneous xenograft tumor. Kind of test: In vivo antitumor activity, Renca subcutaneous xenograft tumor model. Details: species or system Balb/c mice. How it is done:
Female Balb/c mice (6 to 8 weeks old)
Mouse renal carcinoma Renca cells (ATCC-CRL-2947) were adherent cultured in vitro under the conditions of RPMI 1640 Medium with 10% fetal bovine serum, 0.1 mM non-essential amino acids, 1 mM sodium pyruvate, 2 mM glutamine, 100 U/mL penicillin and 100 µg/mL streptomycin, and cultured in a 37° C., 5% CO2 incubator. Routine passage was performed twice a week. When the cell saturation density was 80% to 90% and the number of cells reached the required level, the cells were collected, counted, and inoculated.
0.1 mL (1×10^5) Renca cells were subcutaneously inoculated on the dorsal side of the right upper limb of each mouse, and grouping and administration were initiated when the average tumor volume reached approximately 50 to 80 mm^3.
Tumor diameters were measured twice a week with vernier calipers. […]
The antitumor efficacy of compounds was evaluated by TGI (%) or relative tumor proliferation rate T/C (%). […] Relative tumor volume (RTV) was calculated according to the results of tumor measurement, and the formula was RTV=Vt/V0, where V0 was the tumor volume measured at the time of grouping and administration (i.e. D0), Vt was the tumor volume of the corresponding mouse in one measurement, and the TRTV and CRTV data were collected on the same day. […]

Another test concerns Ba/F3-TEL-VEGFR2. The test can be described thus: In vitro proliferation of BaF3 cell line, Ba/F3-TEL-VEGFR2. The test is classed as cell-based. Conditions: Ba/F3-TEL-VEGFR2, 72 h. How it is done:
The mother solution was prepared into a total of 9 concentration gradients (10.0000 mM, 2.5000 mM, 0.6250 mM, 0.1563 mM, 0.0391 mM, 0.0098 mM, 0.0024 mM, 0.0006 mM and 0.0002 mM) in a 4-fold dilution and stored in a 96-well plate (Beaver, Suzhou), while the same volume of DMSO solvent was used as a negative control. • 1. Cell suspension in logarithmic growth phase was taken and inoculated in a white 96-well cell culture plate (Corning 3917, NY, USA) with a volume of 95 μL per well (2000 cells/well). • 2. Diluted medium-compound mixture was added in a volume of 5 μL per well, respectively, and the final concentration of DMSO in Ba/F3-TEL-FLT1 (VEGFR1), Ba/F3-TEL-FLT4 (VEGFR3) and Ba/F3-TEL-VEGFR2 cells was 0.1%.
• 3. The plate was incubated in a 37° C., 5% CO2 incubator for 72 h. • 4. The proliferation inhibitory activity and data analysis of the compound by CellTiter-Glo method were the same as in Experimental embodiment 1.

In test [1], `CS(=O)(=O)O.Cn1cc(-c2ccn3c(-c4cc(NS(C)(=O)=O)nc(-c5ccc(F)cc5F)c4)cnc3c2)cn1` gave an IC50 of 167 nM. For the same molecule, the “effect on tumor growth versus solvent control group” value in test [2] (Renca model, 100 mg/kg, p=0.031) is reported as “significant inhibitory effect on tumor growth”. Moreover, the “TGI % (last administration on day 19)” value in test [2] (Renca xenograft tumor model, 100 mg/kg QD, female Balb/c mice) came to 72%. Moreover, in the test on Ba/F3-TEL-VEGFR2, the Maximum inhibition was 99.99% and the Minimum inhibition is 8.23%. In addition, the half-maximal inhibitory concentration (IC50) in the test on Ba/F3-TEL-VEGFR2 (Mus musculus, BaF3, read-out: Relative IC50) is roughly 9.7 nM.

For the origin of these results see patent publication US20240409534A1, “CRYSTAL FORM OF METHYLPYRAZOLE-SUBSTITUTED PYRIDOIMIDAZOLE COMPOUND AND PREPARATION METHOD THEREFOR” (priority 2021, published 2024).
